The supplement of paper PMC10307832

Compound: O=C(Nc1cccc(C(F)(F)F)c1)Nc1cc(S(=O)(=O)NC2CC2)ccc1-c1ccsc1 [AGI-6780] + CS(=O)(=O)N1CCN(Cc2cc3nc(-c4cccc5[nH]ncc45)nc(N4CCOCC4)c3s2)CC1 [Pictilisib] (partner 1 µM)
Assay: relative viability (nuclei count vs DMSO), 5 days (fraction); higher = more cells survive
Procedure, shortened: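 Dosing by pin tool came one day after lung cancer cell lines were seeded in 1536-well plates, using either one drug or a fixed anchor-drug dose plus five library-drug doses (not always all listed) in √10 steps. After 5 days, nuclei were counted on 4× images. Relative viability is treated-well nuclei count divided by vehicle-well nuclei count, and values are medians of duplicate plates.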

Cell Line | relative viability (first compound 0.08 µM) | relative viability (first compound 0.253 µM) | relative viability (first compound 0.8 µM) | relative viability (first compound 2.53 µM) | relative viability (first compound 8 µM)
201T | 0.699 | 0.735 | 0.686 | 0.647 | 0.702
A549 | 0.583 | 0.463 | 0.604 | 0.459 | 0.463
A-427 | 0.702 | 0.753 | 0.653 | 0.524 | 0.854
ABC-1 | 0.86 | 0.865 | 1.05 | 0.864 | 0.756
BEN | 0.527 | 0.629 | 0.586 |  | 0.521
CAL-12T |  | 0.575 | 0.531 | 0.717 | 0.644
COR-L23 | 0.772 | 0.755 | 0.702 | 0.66 | 0.827
COR-L 105 | 0.482 | 0.393 | 0.463 | 0.463 | 0.39
Calu-6 | 0.996 | 0.891 | 0.929 | 0.908 | 0.937
ChaGo-K-1 | 0.593 | 0.809 | 0.938 | 0.552 | 0.704
EBC-1 | 0.388 | 0.337 | 0.343 | 0.379 | 0.347
EKVX | 0.445 | 0.437 | 0.495 | 0.395 | 0.495
EMC-BAC-2 | 0.579 | 0.575 | 0.602 | 0.395 | 0.617
EPLC-272H | 0.39 | 0.33 | 0.257 | 0.344 | 0.318
H3255 | 0.475 | 0.436 | 0.512 | 0.457 | 0.443
HARA | 0.379 | 0.406 | 0.54 | 0.587 | 0.371
HCC-15 | 0.88 | 0.82 | 0.834 | 0.594 | 0.801
HCC-44 | 0.745 | 0.72 | 0.649 | 0.496 | 0.486
HCC-78 | 0.159 | 0.241 | 0.299 | 0.152 | 0.249
HCC-366 | 0.185 | 0.111 | 0.108 | 0.15 | 0.175
HCC-827 | 0.896 | 0.916 | 1.03 | 0.856 | 0.823
HOP-62 | 0.815 | 0.928 | 0.88 | 0.651 | 0.786
IA-LM | 0.452 | 0.38 | 0.39 | 0.301 | 0.476
LC-2-ad | 0.598 | 0.726 | 0.532 | 0.381 | 0.456
LCLC-97TM1 | 0.195 | 0.218 | 0.257 |  | 0.245
LCLC-103H | 0.582 | 0.681 | 0.516 | 0.457 | 0.663

Cell Line | relative viability (first compound 0.08 µM) | relative viability (first compound 0.253 µM) | relative viability (first compound 0.8 µM) | relative viability (first compound 2.53 µM) | relative viability (first compound 8 µM)
LK-2 | 0.413 | 0.461 | 0.601 |  | 0.505
LOU-NH91 | 0.524 | 0.529 | 0.554 | 0.505 | 0.525
LU99A | 0.396 | 0.339 | 0.339 | 0.273 | 0.317
LXF-289 | 0.827 | 0.803 | 0.766 | 0.741 | 0.827
NCI-H23 | 0.614 | 0.571 | 0.624 | 0.437 | 0.609
NCI-H322M | 0.518 | 0.572 | 0.526 | 0.585 | 0.524
NCI-H358 | 0.355 | 0.38 | 0.355 | 0.289 | 0.336
NCI-H441 | 0.562 | 0.483 | 0.565 | 0.288 | 0.381
NCI-H460 | 0.325 | 0.338 | 0.382 | 0.242 | 0.374
NCI-H520 | 0.278 | 0.315 | 0.332 | 0.257 | 0.29
NCI-H596 | 0.419 | 0.399 | 0.376 | 0.382 | 0.476
NCI-H647 | 0.428 | 0.452 | 0.421 | 0.347 | 0.342
NCI-H650 | 0.872 | 0.769 | 0.833 | 0.775 | 0.826
NCI-H661 | 0.378 | 0.482 | 0.45 | 0.317 | 0.381
NCI-H727 | 0.516 | 0.545 | 0.38 | 0.227 | 0.276
NCI-H838 | 0.473 | 0.479 | 0.469 | 0.447 | 0.48
NCI-H1299 | 0.781 | 0.733 | 0.639 | 0.765 | 0.742
NCI-H1355 | 0.492 | 0.503 | 0.5 | 0.326 | 0.437
NCI-H1395 | 0.638 | 0.626 | 0.574 |  | 0.65
NCI-H1437 | 0.438 | 0.545 | 0.432 | 0.283 | 0.43
NCI-H1563 | 0.621 | 0.629 | 0.628 | 0.614 | 0.519
NCI-H1650 | 0.566 | 0.555 | 0.678 | 0.568 | 0.586
NCI-H1651 | 0.547 | 0.673 | 0.495 | 0.509 | 0.511
NCI-H1666 | 0.332 | 0.472 | 0.421 |  | 0.567
NCI-H1703 | 0.336 | 0.197 | 0.259 | 0.223 | 0.248
NCI-H1734 | 0.528 | 0.479 | 0.419 |  | 0.447

Cell Line | relative viability (first compound 0.08 µM) | relative viability (first compound 0.253 µM) | relative viability (first compound 0.8 µM) | relative viability (first compound 2.53 µM) | relative viability (first compound 8 µM)
NCI-H1755 | 0.445 | 0.467 | 0.408 | 0.368 | 0.441
NCI-H1792 | 0.302 | 0.279 | 0.281 | 0.245 | 0.242
NCI-H1793 | 0.272 | 0.364 | 0.351 | 0.344 | 0.303
NCI-H1915 | 1.02 | 1.04 | 0.976 | 0.855 | 1.03
NCI-H1944 | 0.358 | 0.366 | 0.386 | 0.323 | 0.381
NCI-H1975 | 0.315 | 0.3 | 0.31 | 0.244 | 0.26
NCI-H1993 | 0.0371 | 0.802 | 0.854 | 0.661 | 0.82
NCI-H2009 | 0.731 | 0.884 | 0.911 | 0.737 | 0.867
NCI-H2023 | 0.284 | 0.279 | 0.271 | 0.181 | 0.229
NCI-H2085 | 0.468 | 0.541 | 0.48 | 0.404 | 0.491
NCI-H2087 | 0.787 | 0.914 | 0.879 | 0.644 | 0.773
NCI-H2126 | 0.484 | 0.573 | 0.496 | 0.44 | 0.493
NCI-H2170 | 0.348 | 0.358 | 0.328 |  | 0.303
NCI-H2228 | 0.378 | 0.532 | 0.358 | 0.133 | 0.386
NCI-H2347 | 0.747 | 0.648 | 0.591 | 0.553 | 0.897
NCI-H2405 | 0.411 | 0.467 | 0.262 |  | 0.53
NCI-H3122 | 0.584 | 0.563 | 0.625 | 0.548 | 0.62
PC-3 [JPC-3] | 0.767 | 0.78 | 0.819 | 0.687 | 0.691
PC-14 | 0.927 | 0.681 | 0.893 | 0.55 | 0.857
RERF-LC-KJ | 0.559 | 0.537 | 0.604 | 0.418 | 0.467
SK-LU-1 | 0.496 | 0.57 | 0.437 | 0.435 | 0.752
SK-MES-1 | 0.365 | 0.367 | 0.338 | 0.273 | 0.344
SW 1573 | 0.506 | 0.518 | 0.514 | 0.374 | 0.543
UMC-11 | 0.822 | 0.837 | 1.08 |  | 0.887
